Data as given in PubChem BioAssay (NCI).
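Five concentrations, 48 hours, 96-well plates. The concentration for 50% growth inhibition is given as GI50. Definition used: TGI = concentration required for complete inhibition of growth.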

How the values were obtained:
Assay in all cases: DTP human tumour cell line panel, 48 h
SF-539 CNS = system: SF-539 CNS
MOLT-4 leukemia = system: MOLT-4 leukemia
T-47D breast = system: T-47D breast
ACHN renal = system: ACHN renal
EKVX NSCLC = system: EKVX NSCLC
OVCAR-3 ovarian = system: OVCAR-3 ovarian
OVCAR-8 ovarian = system: OVCAR-8 ovarian
SNB-75 CNS = system: SNB-75 CNS
U251 CNS = system: U251 CNS
SW-620 colon = system: SW-620 colon
OVCAR-4 ovarian = system: OVCAR-4 ovarian
RPMI-8226 leukemia = system: RPMI-8226 leukemia
LOX IMVI melanoma = system: LOX IMVI melanoma
SK-MEL-5 melanoma = system: SK-MEL-5 melanoma
CAKI-1 renal = system: CAKI-1 renal
HL-60(TB) leukemia = system: HL-60(TB) leukemia
SK-OV-3 ovarian = system: SK-OV-3 ovarian
MDA-MB-231 breast = system: MDA-MB-231 breast
MALME-3M melanoma = system: MALME-3M melanoma
NCI/ADR-RES ovarian = system: NCI/ADR-RES ovarian
SR leukemia = system: SR leukemia
MCF7 breast = system: MCF7 breast
SK-MEL-2 melanoma = system: SK-MEL-2 melanoma
NCI-H23 lung = system: NCI-H23 lung
HT29 colon = system: HT29 colon
UO-31 renal = system: UO-31 renal
HCT-15 colon = system: HCT-15 colon
786-0 renal = system: 786-0 renal
UACC-257 melanoma = system: UACC-257 melanoma
K-562 leukemia = system: K-562 leukemia
NCI-H226 lung = system: NCI-H226 lung
HOP-62 NSCLC = system: HOP-62 NSCLC
OVCAR-5 ovarian = system: OVCAR-5 ovarian
SNB-19 CNS = system: SNB-19 CNS
HOP-92 NSCLC = system: HOP-92 NSCLC
IGROV1 ovarian = system: IGROV1 ovarian
HCC-2998 colon = system: HCC-2998 colon
A498 renal = system: A498 renal
DU-145 prostate = system: DU-145 prostate
MDA-MB-435 = system: MDA-MB-435
TK-10 renal = system: TK-10 renal
NCI-H460 lung = system: NCI-H460 lung
SN12C renal = system: SN12C renal
M14 melanoma = system: M14 melanoma
PC-3 prostate = system: PC-3 prostate
CCRF-CEM leukemia = system: CCRF-CEM leukemia
A549 NSCLC = system: A549 NSCLC
UACC-62 melanoma = system: UACC-62 melanoma
KM12 colon = system: KM12 colon
RXF 393 renal = system: RXF 393 renal
HS 578T breast = system: HS 578T breast
HCT-116 colon = system: HCT-116 colon
COLO 205 colon = system: COLO 205 colon
SK-MEL-28 melanoma = system: SK-MEL-28 melanoma
SF-295 CNS = system: SF-295 CNS
SF-268 CNS = system: SF-268 CNS
BT-549 breast = system: BT-549 breast

For `COc1ccc(-c2cc3c(OC)c(OC)c(OC)cc3oc2=O)cc1`, the GI50 (SF-539 CNS) was 4.09 µM, the TGI (SF-539 CNS) was 22.9 µM and the GI50 (MOLT-4 leukemia) was 3.92 µM. It also gave a TGI (MOLT-4 leukemia) of 22.2 µM, a GI50 (T-47D breast) of 5.02 µM and a TGI (T-47D breast) of 92.3 µM. The GI50 (ACHN renal) was 7.47 µM, the TGI (ACHN renal) was greater than 100 µM and the GI50 (EKVX NSCLC) was 8.32 µM. It also gave a TGI (EKVX NSCLC) greater than 100 µM, a GI50 (OVCAR-3 ovarian) of 2.68 µM and a TGI (OVCAR-3 ovarian) of 6.45 µM. It also gave a GI50 (OVCAR-8 ovarian) of 5 µM, a TGI (OVCAR-8 ovarian) greater than 100 µM and a GI50 (SNB-75 CNS) of 3.39 µM. For the same compound, the TGI (SNB-75 CNS) was 23 µM, the GI50 (U251 CNS) was 4.27 µM and the TGI (U251 CNS) was greater than 100 µM. For the same compound, the GI50 (SW-620 colon) was 2.79 µM, the TGI (SW-620 colon) was greater than 100 µM and the GI50 (OVCAR-4 ovarian) was 7.6 µM. The TGI (OVCAR-4 ovarian) was greater than 100 µM, the GI50 (RPMI-8226 leukemia) was 2.32 µM and the TGI (RPMI-8226 leukemia) was 17 µM. The GI50 (LOX IMVI melanoma) was 5.32 µM, the TGI (LOX IMVI melanoma) was greater than 100 µM and the GI50 (SK-MEL-5 melanoma) was 2.57 µM. For the same compound, the TGI (SK-MEL-5 melanoma) was 8.51 µM, the GI50 (CAKI-1 renal) was 4.59 µM and the TGI (CAKI-1 renal) was greater than 100 µM. The GI50 (HL-60(TB) leukemia) was 2.95 µM, the TGI (HL-60(TB) leukemia) was 12.8 µM and the GI50 (SK-OV-3 ovarian) was 4.67 µM. The TGI (SK-OV-3 ovarian) was 82.2 µM, the GI50 (MDA-MB-231 breast) was 4.91 µM and the TGI (MDA-MB-231 breast) was 62.5 µM. For the same compound, the GI50 (MALME-3M melanoma) was 4.37 µM, the TGI (MALME-3M melanoma) was greater than 100 µM and the GI50 (NCI/ADR-RES ovarian) was 2.02 µM. The TGI (NCI/ADR-RES ovarian) was 7.72 µM, the GI50 (SR leukemia) was 1.11 µM and the TGI (SR leukemia) was 12.7 µM. The GI50 (MCF7 breast) was 3.69 µM, the TGI (MCF7 breast) was greater than 100 µM and the GI50 (SK-MEL-2 melanoma) was 3.48 µM. It also gave a TGI (SK-MEL-2 melanoma) greater than 100 µM, a GI50 (NCI-H23 lung) of 3.49 µM and a TGI (NCI-H23 lung) greater than 100 µM. For the same compound, the GI50 (HT29 colon) was 3.42 µM, the TGI (HT29 colon) was 13.1 µM and the GI50 (UO-31 renal) was 5.59 µM. It also gave a TGI (UO-31 renal) of 48.8 µM, a GI50 (HCT-15 colon) of 3.43 µM and a TGI (HCT-15 colon) greater than 100 µM. It also gave a GI50 (786-0 renal) of 6.91 µM, a TGI (786-0 renal) greater than 100 µM and a GI50 (UACC-257 melanoma) of 5.47 µM. For the same compound, the TGI (UACC-257 melanoma) was greater than 100 µM, the GI50 (K-562 leukemia) was 2.02 µM and the TGI (K-562 leukemia) was greater than 100 µM. It also gave a GI50 (NCI-H226 lung) of 13.3 µM, a TGI (NCI-H226 lung) of 78.8 µM and a GI50 (HOP-62 NSCLC) of 4.68 µM. It also gave a TGI (HOP-62 NSCLC) greater than 100 µM, a GI50 (OVCAR-5 ovarian) of 17.8 µM and a TGI (OVCAR-5 ovarian) greater than 100 µM. For the same compound, the GI50 (SNB-19 CNS) was 5.95 µM, the TGI (SNB-19 CNS) was greater than 100 µM and the GI50 (HOP-92 NSCLC) was 2.61 µM. The TGI (HOP-92 NSCLC) was 22.4 µM, the GI50 (IGROV1 ovarian) was 5.81 µM and the TGI (IGROV1 ovarian) was greater than 100 µM. The GI50 (HCC-2998 colon) was 4.41 µM, the TGI (HCC-2998 colon) was greater than 100 µM and the GI50 (A498 renal) was 1.7 µM. For the same compound, the TGI (A498 renal) was 6.98 µM, the GI50 (DU-145 prostate) was 4.51 µM and the TGI (DU-145 prostate) was 59.9 µM. The GI50 (MDA-MB-435) was 0.444 µM, the TGI (MDA-MB-435) was 2.37 µM and the GI50 (TK-10 renal) was 5.11 µM. For the same compound, the TGI (TK-10 renal) was 65 µM, the GI50 (NCI-H460 lung) was 3.48 µM and the TGI (NCI-H460 lung) was 17 µM. It also gave a GI50 (SN12C renal) of 5.04 µM, a TGI (SN12C renal) greater than 100 µM and a GI50 (M14 melanoma) of 3.31 µM. For the same compound, the TGI (M14 melanoma) was greater than 100 µM, the GI50 (PC-3 prostate) was 7.42 µM and the TGI (PC-3 prostate) was greater than 100 µM. It also gave a GI50 (CCRF-CEM leukemia) of 3.1 µM, a TGI (CCRF-CEM leukemia) of 45.9 µM and a GI50 (A549 NSCLC) of 4.62 µM. The TGI (A549 NSCLC) was greater than 100 µM, the GI50 (UACC-62 melanoma) was 3.95 µM and the TGI (UACC-62 melanoma) was greater than 100 µM. The GI50 (KM12 colon) was 1.79 µM, the TGI (KM12 colon) was greater than 100 µM and the GI50 (RXF 393 renal) was 5.91 µM. For the same compound, the TGI (RXF 393 renal) was 63.5 µM, the GI50 (HS 578T breast) was 2.59 µM and the TGI (HS 578T breast) was 7.96 µM. It also gave a GI50 (HCT-116 colon) of 3.97 µM, a TGI (HCT-116 colon) of 18.6 µM and a GI50 (COLO 205 colon) of 3.66 µM. It also gave a TGI (COLO 205 colon) of 14.7 µM, a GI50 (SK-MEL-28 melanoma) of 5.28 µM and a TGI (SK-MEL-28 melanoma) greater than 100 µM. It also gave a GI50 (SF-295 CNS) of 4.63 µM, a TGI (SF-295 CNS) greater than 100 µM and a GI50 (SF-268 CNS) of 4.95 µM. For the same compound, the TGI (SF-268 CNS) was 90.9 µM, the GI50 (BT-549 breast) was 5.85 µM and the TGI (BT-549 breast) was 71.6 µM.
